Reference: PMC13198257, “An aerosolized dual-action autotaxin inhibitor-PPARγ agonist for the treatment of pulmonary fibrosis” (Cell Reports Medicine, 2026)

How the values were obtained:
PPARγ = target: T1, PPARγ (Homo sapiens, UniProt P37231); experiment: PPARγ Gal4 hybrid reporter gene assay; format: cell-based; settings: for EC50 / PPARγ fold activ. (max. activation): Gal4-hybrid reporter, HEK293T cells; for Selectivity for PPARγ: versus PPARα and PPARδ hybrid reporters
T1 construct: expressed in transfected cells; host or cells: HEK293T
T1 sequence (P37231 238-503 limits assumed): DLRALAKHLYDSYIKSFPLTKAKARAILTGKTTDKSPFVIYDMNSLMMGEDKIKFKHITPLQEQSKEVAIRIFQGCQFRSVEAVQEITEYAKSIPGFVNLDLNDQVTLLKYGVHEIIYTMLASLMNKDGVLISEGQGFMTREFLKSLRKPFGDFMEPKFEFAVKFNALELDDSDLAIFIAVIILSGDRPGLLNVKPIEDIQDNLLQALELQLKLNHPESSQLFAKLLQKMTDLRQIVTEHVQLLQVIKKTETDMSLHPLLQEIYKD
Protocol: All well-established assays were performed following straightforward methodology.[49] Plasmids pFA-CMV-hPPARα-LBD, pFA-CMV-hPPARγ-LBD and pFA-CMV-hPPARδ-LBD code for the hinge region and ligand binding domain of the canonical isoform of the respective nuclear receptor and were used to express the Gal4 hybrid receptors. pFR-Luc (Stratagene, La Jolla, CA, USA) and pRL-SV40 (Promega, Madison, WI, USA) were used as Gal4-responsive reporter and as internal control in the hybrid reporter gene assays, respectively. HEK293T cells were seeded in 96-well plates (3×10^4 cells/well). Before transfection, the medium was changed to Opti-MEM without supplements, and transient transfection with the plasmids pFR-Luc, pRL-SV40, and one pFA-CMV-NR-LBD clone was carried out using Lipofectamine LTX reagent (Invitrogen, Carlsbad, CA, USA) according to the manufacturer’s protocol. […] Normalisation of transfection efficiency and cell growth was performed by dividing firefly luminescence by Renilla luminescence and multiplying the result by 1000, yielding relative light units (RLU). Fold activation was obtained by dividing the mean RLU of the test compound by the mean RLU of the untreated control.

ATX = target: T2, ATX (Homo sapiens, UniProt Q13822); experiment: Mode of ATX inhibition, Lineweaver-Burk plots (various LPC concentrations); format: biochemical
T2 construct: purchased Sino Biological 11308-H07H
Protocol: To determine the mode of inhibition of ATX, various concentrations of TGZ, compound 5 and EL244 were tested against various LPC concentrations. Specifically, TGZ was tested against 6.25, 12.5, 25, 50 and 100 μM LPC, compound 5 was tested against 3.125, 6.25, 12.5, 25, 50 and 100 μM LPC, while EL244 was tested against 25, 50, 100 and 150 μM LPC. Lineweaver–Burk graphs depicting the reciprocal of velocity (1/V) against the reciprocal of substrate concentration (1/S) were plotted with GraphPad Software.

PPARγ LBD = target: T3, PPARγ LBD (Homo sapiens, UniProt P37231); experiment: Isothermal titration calorimetry (ITC); format: binding; settings: for Kd: PPARγ LBD, 25°C
T3 construct: using recombinant PPARγ LBD protein dissolved in a buffer; made in house
T3 sequence (P37231 238-503 limits assumed): T1 sequence (P37231 238-503 limits assumed)
Protocol: ITC was performed[49] on a TA Instruments Affinity ITC (TA Instruments, New Castle, Delaware, USA), using recombinant PPARγ LBD protein dissolved in a buffer containing 25 mM HEPES, 150 mM KF, 5 mM DTT, 10% w/v glycerol and 1% DMSO at pH 7.5. […] The titration was performed at 25°C with a stirring rate of 75 rpm. An interval of 300 s was maintained between injections. ITC raw data were analyzed with the NanoAnalyze software package (version 3.7.5). An independent binding model was used to fit the reaction enthalpy (ΔH), binding affinity constant (KD), and stoichiometry (n). Free energy change (ΔG) was calculated with the equation ΔG = −RT ln K and the entropy (ΔS) was calculated with the equation ΔG = ΔH−TΔS.

[1] = AMP membrane permeability; format: in vitro ADME; settings: 10 μΜ
[2] = tested on: BLM-induced pulmonary fibrosis; experiment: BLM-induced pulmonary fibrosis model, inhaled drug; format: in vivo, C57Bl/6 mice
Excerpt: BLM-induced pulmonary fibrosis was induced via the oropharyngeal aspiration of BLM (0.8 U/Kg).[54]^,[55]^,[141] The dose and route of administration have been selected following extensive local testing to minimise lethality while preserving a solid and reproducible fibrotic profile. Readout assays include weight and overall health status, pulmonary oedema and inflammation, collagen levels determination (soluble in BALFs, Q-RT-PCR and histology in lung tissue), lung histology with specialised stainings (Fast green/picrosirius red), as well as the measurement of respiratory functions (flexiVent, SQIREQ); a detailed protocol is publicly available at protocols.io.
Drug inhalation of compound 5 and EL244 to conscious, softly restrained mice was performed using the inExpose system (Scireq).[55] Compound 5 and EL244 were diluted in Kolliphor (15% and 10%, respectively) to final concentrations of 6.5 and 9.02 mg/mL, respectively. Volumes of 1 mL (for 5) and 0.6 mL (for EL244) were aerosolized over 10 and 15 min, respectively in groups of 6 mice, corresponding to a final estimated dose of 15mg/Kg per mouse. Control groups received an aerosolized solution of Kolliphor (10–15%) in saline.

ATX activity in serum = experiment: TOOS assay: ex vivo lyso-PLD (ATX) activity in serum with 2 mM exogenous LPC; format: biochemical
Protocol: ATX inhibitory activity ex vivo of examined compounds was assessed via the colorimetric TOOS assay.[32]^,[35]^,[36] The assay was done in Lyso-PLD buffer (100 mM Tris-Cl, pH 8, 500 mM NaCl, 5 mM MgCl2, 5 mM CaCl2). A mix of Lyso-PLD buffer and serum (10:1) was prepared. LPC 16:0 was added to this mix at a final concentration of 2 mM. Increasing concentrations of compounds and a choline standard curve (0–100 μM) were prepared using the Lyso-PLD buffer/serum/LPC mix and 100 μL of these were placed in separate wells of a 96-well plate, followed by a 5 h incubation at 37°C. 100 μL of color mix (TOOS 0.3 mM, 4-AAP 0.5 mM, choline oxidase 2 U/mL, HRP 7.95 U/mL in Lyso-PLD buffer) were added to each well. Color was measured at 550 nm using an Optimax spectrophotometer. Background was subtracted from all values to account for the endogenous LPC and choline in the serum. Produced choline levels were calculated from the choline standard curve and indicate the amount of substrate (LPC) that had been consumed in each well corresponding to Lyso-PLD activity.

[3] = Mouse metabolic clearance and half-life in vitro
[4] = inhaled 15 mg/kg o.d., prophylactic mode
[5] = inhaled 15 mg/kg o.d., therapeutic mode from day 7 post-BLM
[6] = inhaled 15 mg/kg b.i.d., therapeutic mode from 7 days post-BLM

SMILES: O=C1NC(=O)C(Cc2ccc(OCCC3CCN(C(=O)OCc4cc(Cl)cc(Cl)c4)CC3)cc2)S1 (centres unmarked) [EL244, 3,5-dichlorobenzyl 4-(2-(4-((2,4-dioxothiazolidin-5-yl)methyl)phenoxy)ethyl)piperidine-1-carboxylate]
- EC50 (PPARγ): 1300 nM
- PPARγ fold activ. (max. activation) (PPARγ): 17 ± 1 fold
- Selectivity for PPARγ (PPARγ): selectively
- Mode of ATX inhibition (ATX): competitive
- Thermodynamics of binding to PPARγ-LBD (PPARγ LBD): enthalpy-driven
- Kd (PPARγ LBD): 1300 nM
- AMP [1]: 8e-07 cm/s
- PPARγ target gene mRNA in lung tissue (RT-qPCR) ([2]; BLM mice, inhaled EL244): marginal increases
- BALF soluble collagen [2, 4]: significantly reduced
- Histology [2, 4]: attenuated collagen deposition and reduced fibrotic regions
- Inflammation (BALF inflammatory cells) [2, 4]: markedly reduced
- Lung tissue Col1a1 mRNA [2, 4]: significantly reduced
- Pulmonary edema (BALF total protein) [2, 4]: markedly reduced
- Respiratory functions ([2]; inhaled 15 mg/kg o.d., prophylactic mode, 15 days from one day before BLM): significantly improved respiratory functions
- BALF soluble collagen [2, 5]: significantly reducing
- Effect on inflammation (BALF inflammatory cells) [2, 5]: did not reach statistical significance
- Histopathology [2, 5]: reduced collagen deposition and fewer and smaller fibrotic regions
- Lung tissue Col1a1 expression [2, 5]: significantly reducing
- Respiratory functions [2, 5]: significantly restored all assessed respiratory functions
- Vascular permeability (BALF total protein) [2, 5]: reduced vascular permeability
- lyso-PLD (ATX) inhibition in serum (ATX activity in serum): Improved lyso-PLD inhibition
- half-life at 0.1 μM [3]: 61 min
- microsomal CLint at 0.1 μM [3]: 114 µL/min/mg

SMILES: O=C1NC(=O)C(Cc2ccc(OCCN3CCN(C(=O)OCc4cc(Cl)cc(Cl)c4)CC3)cc2)S1 (centres unmarked) [Compound 5, 3,5-dichlorobenzyl4-(2-(4-((2,4-dioxothiazolidin-5-yl)methyl)phenoxy)ethyl)piperazine-1-carboxylate]
- EC50 (PPARγ): 1500 nM
- PPARγ fold activ. (max. activation) (PPARγ): 9 ± 1 fold
- Selectivity for PPARγ (PPARγ): selective PPARγ agonist
- Mode of ATX inhibition (ATX): non-competitive
- Thermodynamics of binding to PPARγ-LBD (PPARγ LBD): entropy-driven
- Kd (PPARγ LBD): 600 nM
- AMP [1]: 3.7e-06 cm/s
- BALF inflammatory cells [2, 6]: decreased inflammatory cells
- BALF total protein (vascular leak, pulmonary edema) [2, 6]: decreased total protein levels
- Decrease of BALF soluble collagen [2, 6]: did not reach statistical significance
- Decrease of lung tissue Col1a1 mRNA [2, 6]: did not reach statistical significance
- Histology (H&E, fast green/Sirius red) [2, 6]: fewer fibrotic regions and decreased collagen deposition
- Respiratory functions (Cst, Crs, A) [2, 6]: efficiently attenuated the BLM-induced impairment of respiratory functions
- lyso-PLD (ATX) inhibition in serum (ATX activity in serum): dose-dependent effect
- half-life at 0.1 μM [3]: 21 min
